Reference: patent US10997871B2, “Contractile function measuring devices, systems, and methods of use thereof” (President and Fellows of Harvard College, priority 2014, dated 2021)

How the values were obtained:
cardiac tissue [1] = assay: optogenetic muscle thin film contractile assay, frequency and dose-dependent response of drug-treated tissue; type: cell-based
From the text: The system 300 can incorporate the system 290. The system 300 can be substantially similar in structure and function to the systems discussed above, except for the distinctions noted herein. Therefore, like reference numbers represent like structures. The system 300 can include a lens 152 disposed above the platform 222 and a C-mount lens 302 (e.g., a 1× lens) disposed above the lens 152. The system 300 can further include a sensor 304 (e.g., a 100 frames per second complementary metal oxide semiconductor (CMOS) camera, or the like) disposed above the lens 302. The components 152, 302, 304 can be aligned along the vertical axis 164.
The system 300 can include mirror 306 (e.g., a mirror with an oblique angle), a filter 308 (e.g., an LP filter, such as 776LP), and a light source 310 aligned along an axis 312 substantially perpendicular to the vertical axis 164. Light imparted from the light source 310 can be directed by the mirror 306 at the tissue structures 224. The light can further be directed at the sensor 304. The system 300 provides a combination of an optogenetic tissue structure and an optical mapping system setup, including bright field microscopy for optogenetic tissue structures with the sensor 304 and red light illumination from the filter 308.
124 muscle thin films were tested on 15 chips or platforms using three harvests. The error bar indicates a standard error of mean and the shading indicates approximately 95% confidence limits. […] Thus, the independently paced optogenetic muscle thin films enable higher throughput assays to investigate the frequency-dependent response.
As an example, quinidine and verapamil (both frequency-dependent) were tested for frequency and dose-dependent response in cardiac tissue. In particular, optogenetic muscle thin films in a contractile assay were used to recapitulate frequency and dose dependent mechanical responses of drug-treated tissue. In particular, FIGS. 61 and 62 show the pacing frequency, change in spontaneous beating rate frequency, change in twitch stress, and change in maximum Dt/dt for quinidine and verapamil.

cardiac tissue [2] = conditions: cited from earlier work

SMILES | 1:1 coupling (cardiac tissue [1]; at a low frequency with relatively low concentration, optical pacing) | inotropic effect (twitch stress, contractility) (cardiac tissue [1]; comparison of verapamil with quinidine) | spontaneous beating rate (cardiac tissue [1]; drug-treated cardiac tissue) | effect on calcium handling (cardiac tissue [2]; general statement explaining the inotropic result) | effect on myocardial contractility (cardiac tissue [2]; when given in therapeutic doses, general statement)
COc1ccc(CCN(C)CCCC(C#N)(c2ccc(OC)c(OC)c2)C(C)C)cc1OC (centres unmarked) [verapamil] | low | stronger negative inotropic effect than quinidine | increase | directly affects calcium handling | 
C=C[C@H]1C[N@@]2CC[C@H]1C[C@@H]2[C@@H](O)c1ccnc2ccc(OC)cc12 [quinidine] |  |  |  |  | does not directly affect myocardial contractility
